The subject of data set [1] is CD-1 mouse liver microsomes. In words: Steady-state kinetics for 5F-APINACA metabolism by CD-1 mouse liver microsomes. It is filed as in vitro ADME. The protocol: (§1) The in vitro 5F-APINACA analyses relied on reactions with human liver microsomes 150 (HLM150) as a model for the average adult human liver and CD-1 mouse liver microsomes as the standard for SCB studies. In a 96-half-well microplate, reaction conditions included human or mouse liver microsomes in 100 mM potassium phosphate buffer pH 7.4, 0.1% methanol (co-solvent), and 5F-APINACA concentrations ranging from 0 to 250 µM. The microplates were preincubated for 15 min at 37 °C with shaking at 350 rpm using a BMG Labtech THERMOstar incubator (Ortenberg, Germany). The addition of an NADPH-regenerating system (4 U/mL glucose-6-phosphate dehydrogenase, 12 mM glucose 6-phosphate, 12 mM MgCl2, 4 mM NADP^+) initiated the reaction. Reactions were quenched by adding an equal volume of ice-cold acetonitrile containing an internal standard (2 μM acenocoumarol final). Samples were chilled on ice for 10 min to optimize precipitation of proteins in phosphate buffer. After 3500 rpm centrifugation at 4 °C for 15 min using a Sorvall ST 16R centrifuge (Thermo Scientific; Waltham, MA, USA), the supernatant was transferred to HPLC vials for HPLC analyses. Standards for metabolite quantifications were prepared with human or mouse liver microsomes in 100 mM potassium phosphate buffer pH 7.4, 0.1% methanol (co-solvent), and 5OH-APINACA concentrations ranging from 0 to 15 µM. The microplates were preincubated for 15 min at 37 °C with shaking at 350 rpm. Reactions were initiated upon addition of the NADPH-regenerating system or 100 mM potassium phosphate as a negative control. For kinetic studies, initial control experiments were carried out to determine the lowest protein concentration and optimal reaction time within the linear response range for all observed metabolites reflecting steady-state conditions. Each set of steady-state reactions were performed at least in triplicate and replicated two times at a minimum. The composition of reactions was determined by liquid chromatographic analysis involving detection of analytes via UV/visible absorbance and mass spectroscopy (Section 2.5).
(§2) We employed explicit equations and numerical methods to model kinetic profiles. In the first case, metabolite levels were used to calculate initial reaction rates for plotting against substrate concentration with GraphPad Prism 9.2 from GraphPad Software, Inc. (San Diego, CA, USA). […] For the numerical methods, ordinary differential equations (ODEs) describing single-substrate (ES) and multi-substrate (ESS) binding kinetics were initially used to fit the models to the primary metabolite formation datasets. The AICc was used to determine the most appropriate model for the same dataset. Predicted parameter estimates from the most appropriate model were then used as initial parameter estimates for a variety of enzyme–substrate–sequential metabolism (ESP1P2P3) models. Schemes included fast- and slow-release rates of metabolite P2 from the enzyme site, either after the first binding event, the second binding event, or both events. A final best-fit model was selected based on AICc values, weighted residuals, and parameter estimate errors. For comparison of all multi-substrate-sequential metabolism models, including the final integrated model, all metabolite data were used simultaneously for model fitting. All association rate constants were fixed at 270 μM^−1 min^−1. When any rate constant within the model had to be held constant, a sensitivity analysis was performed over a range of values to ensure the validity of the results. Based on preliminary model fitting attempts, consistent enzyme kinetic schemes were developed for fitting to both human and CD-1 mouse liver microsomal reaction datasets. Mathematica version 12.3 (Wolfram Research, Champaign, IL, USA) was used for model fitting. The ODEs were numerically solved with NDSolve to provide interpolated functions of each enzyme species. […]

In data set [2] the test system is pooled human liver microsomes (HLM150). In words: Steady-state kinetics for 5F-APINACA metabolism by pooled human liver microsomes. It is filed as in vitro ADME. As to the method:
as §1, §2
(In general: Microsomes from liver hold many membrane-bound enzymes, among them those of drug oxidation.)

The test system of data set [3] is human CYPs in human liver microsomes. As to the kind of experiment: Chemical inhibitor phenotyping of 5F-APINACA reactions, human liver microsomes. Format: in vitro ADME. The conditions noted are these: 25 µM 5F-APINACA; for effect of inhibitor on formation of 5F-APINACA metabolites: 0.1 mg/mL HLM, 1000 µM ABT, 1 µM ketoconazole. As to the method: (§3) Inhibitor phenotyping experiments were carried out to qualitatively identify probable P450 isozymes catalyzing 5F-APINACA metabolic pathways present in our mouse and human liver microsome studies. Reactions contained 0.1 mg/mL protein (MLM or HLM), 25 µM 5F-APINACA, specific CYP inhibitors, 0.25% methanol, 1% acetonitrile, 1.0 mM NADPH-regenerating system, and 100 mM phosphate buffer, pH 7.4. […] For each experiment, the following were included as final concentrations: 10 µM furafylline for CYP1A2, 2 µM tranylcypromine (TCP) for CYP2A6, 3 µM ticlopidine (TIC) for CYP2B6, 16 µM montelukast (MTK) for CYP2C8, 10 µM sulfaphenazole (SPA) for CYP2C9, 16 µM (+)-N-3-benzylnirvanol (NBZ) for CYP2C19, 2 µM quinidine (QND) for CYP2D6, 30 µM 4-methylpyrazole (4MP) for CYP2E1, 1 µM ketoconazole (KCZ) for CYP3A4, and 1000 µM ABT for all CYPs. Each inhibitor stock solution (except FUR) was prepared in potassium phosphate buffer pH 7.4 with 1% acetonitrile (final) as a co-solvent. After a preincubation period of 15 min with shaking, the reactions were initiated with the addition of a NADPH-regenerating system and shaken. For FUR, the inhibitor was prepared in methanol and a microsomal reaction was carried out at 10 µM for 10 min prior to addition of 5F-APINACA. After 30 min, all reactions were quenched, processed, and analyzed by HPLC as previously described. The resultant values were normalized to reaction rates observed in absence of inhibitors to yield a percent inhibition value.
Sample reactions were analyzed to quantitate metabolites by absorbance. Analytes were separated on a Waters XBridge BEH C18 3.5 μM column (4.6 mm × 100 mm) using an Agilent 1100 series HPLC instrument equipped with a VWD detector (280 nm). The mobile phase consisted of solvent A (10% solvent B, 90% water) and solvent B (0.1% formic acid/acetonitrile). A gradient method started at 80% solvent A for the first minute, then decreased to 70% for the next 6 min. […] Parent drug and metabolite responses were normalized to the internal standard acenocoumarol and quantitated using a standard curve generated with 5OH-APINACA. The absorbance response corresponds to the indazole ring, which remained unmodified in these reactions, so that the relative absorbance response for all analytes were approximately the same, making inference for quantitation purposes possible.
(§4) Various statistical approaches were employed among the experimental studies to identify the most likely models for explaining the data or establish the significance of the findings. For the explicit kinetic models, the best-fit kinetic model and corresponding constants were determined using the extra sum-of-squares F test. […]

A further data set deals with mice. The arrangement: method as in PMID 30420360, PMID 32413436. The conditions noted are these: with 1-aminobenzotriazole (ABT); cited from earlier work.
The test system of data set [4] is mouse Cyps in CD-1 mouse liver microsomes. As to the kind of experiment: Chemical inhibitor phenotyping of 5F-APINACA reactions, CD-1 mouse liver microsomes. Format: in vitro ADME. The following applies: 25 µM 5F-APINACA. The protocol:
as §3, with “For FUR, the inhibitor was prepared in methanol and a microsomal reaction was carried out at 10 µM for 10 min prior to addition of 5F-APINACA.” left out, “The resultant values were normalized to reaction rates observed in absence of inhibitors to yield a percent inhibition value.” left out
Sample reactions were analyzed to quantitate metabolites by absorbance. […] Parent drug and metabolite responses were normalized to the internal standard acenocoumarol and quantitated using a standard curve generated with 5OH-APINACA. The absorbance response corresponds to the indazole ring, which remained unmodified in these reactions, so that the relative absorbance response for all analytes were approximately the same, making inference for quantitation purposes possible.
as §4

Where [5] appears, read: formation of the metabolite from 5F-APINACA, parentheses 95% confidence interval.
The mark [6] stands for this setting: global fit to differential rate equations, calculated from micro-rate constants, parentheses standard error.
Where [7] appears, read: global fit to differential rate equations, parentheses standard error.
Setting [8] is: global fit to differential rate equations, second substrate binding (ESS), parentheses standard error.
Where [9] appears, read: Combined adamantyl hydroxylation pathway, parentheses 95% confidence interval.

The values below come from publication PMC9413144, “Similar 5F-APINACA Metabolism between CD-1 Mouse and Human Liver Microsomes Involves Different P450 Cytochromes” (Metabolites, 2022).

One may read the Km as the substrate concentration at which the rate is half of its maximum.

`O=C(NC12CC3CC(CC(C3)C1)C2)c1nn(CCCCCO)c2ccccc12` [5OH-APINACA]: the Vmax is recorded as 690 (650–730) pmol min^−1 mg protein^−1 in data set [1] (setting [5]) and 465 (446–485) pmol min^−1 mg protein^−1 in data set [2] (formation of the metabolite from 5F-APINACA, 0.1 mg/mL protein, parentheses 95% confidence interval). The “h (Hill coefficient)” value in data set [1] (setting [5]) is recorded as 1.4 (1.0–1.8). Moreover, the figures for the Km1 result in data set [1] (setting [6]) and in data set [2] (setting [6]) were “((k2 + k3 + k4)/k1) 3.75 (0.21) µM” and “((k2 + k3 + k4)/k1) 5.69 (0.35) µM”, respectively. Also, the kcat1/Km1 in data set [1] (setting [7]) was 0.238 (0.017) mL min^−1 nmol^−1; in data set [2] (setting [7]), 0.193 (0.015) mL min^−1 nmol^−1. Further, the kcat1 result was “k3 0.89 (0.04) min^−1” in data set [1] (global fit to differential rate equations, rates normalized to total CYP (0.67 μM), parentheses standard error) and “k3 1.10 (0.35) min^−1” in data set [2] (global fit to differential rate equations, rates normalized to total CYP (0.38 μM), parentheses standard error). In addition, the Km2 entry in data set [1] (setting [8]) is listed as “((k6 + k7 + k8)/k5) 122 (6) µM”; in data set [2] (setting [8]), “((k6 + k7 + k8)/k5) 181 (10) µM”. The kcat2 entry is reported as “k7 1.17 (0.05) min^−1” in data set [1] (setting [8]) and “k7 1.23 (0.1) min^−1” in data set [2] (setting [8]). Moreover, the figures for the kcat2/Km2 in data set [1] (setting [8]) and in data set [2] (setting [8]) were 0.0096 (0.0006) mL min^−1 nmol^−1 and 0.0065 (0.0013) mL min^−1 nmol^−1, respectively.
`CC(=O)N1CCN(c2ccc(OCC3COC(Cn4ccnc4)(c4ccc(Cl)cc4Cl)O3)cc2)CC1` (centres unmarked) [ketoconazole, reference compound]: the “effect of inhibitor on formation of 5F-APINACA metabolites” value in data set [3] is given as “inhibition of these pathways”.
Consider `Nn1nnc2ccccc21` [ABT, 1-aminobenzotriazole, reference compound], for which the “effect of inhibitor on formation of 5F-APINACA metabolites” value in data set [3] is given as “completely blocked the formation of all metabolites”.
As for “N-(1-adamantyl)-1-(5-pentyl)-1H-indazole-3-carboxamide [5F-APINACA]”, in data set [3] (chemical inhibitor phenotyping), the “dominant isozyme for both pathways” value is “CYP3A4”; the “isozymes with minor contributions to metabolism” value was “CYP2C8, 2C19, and 2D6”. Also, in data set [1] (setting [9]), the “Ki (substrate inhibition)” value is recorded as 220 (74–1300) µM and the Vmax is 465 (330–730) pmol min^−1 mg protein^−1. Besides, the Km in data set [1] (Combined adamantyl hydroxylation pathway, parentheses 95% confidence interval, read-out: Km or Kh) was determined as 3.8 µM. Besides, in the data set on mice, the “hypothermia in mice on suppression of metabolism by pan-CYP inhibitor ABT” value was “increased hypothermia”. Further, in data set [4] (CD-1 microsomes), the “contribution of CYPs to metabolism” value is reported as “sole role of CYPs”. Besides, the “dominant isozyme carrying out metabolic reactions” value in data set [4] (human CYP inhibitors) is listed as “Cyp3a11”. In addition, in data set [4] (implicated by inhibitor for CYP2C19), the “other dominant contributors to adamantyl hydroxylation, but minor contributors to oxidative defluorination” value was “Cyp2c37, Cyp2c50, and Cyp2c54”. In data set [2] (setting [9]), the “Ki (substrate inhibition)” value was 300 (150–790) µM, the Michaelis constant (Km) stood at 3.3 µM and the Vmax was 400 (330–510) pmol min^−1 mg protein^−1.
